Results reported in the supplement of paper PMC11451515.

Assays:
Details in all cases: 48 h
NOMO1 [1] = test: cell viability relative to DMSO control; higher = less cytotoxic
Procedure, shortened: (§1)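 Three leukemia lines were tested: NOMO1 and SEM at 500 cells/well and P12-Ichikawa at 1000 cells/well. Each was adapted for at least four passages in each medium and seeded in 5 μl in 1536-well plates, and library compounds in DMSO were pin-dosed from 47 μM to 0.79 nM in 11 threefold steps. After 48 h at 37°C, CellTiter-Glo One luminescence was read. Viability is a percentage relative to DMSO wells on each plate, with cell-free wells as background.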

P12-Ichikawa [2] = test: as above
Procedure, shortened: as §1

SEM cells [3] = test: as above
Procedure, shortened: as §1

NOMO1 [4] = test: AUC of viability dose-response curve (% viability x log10 dose units); higher = less sensitive
Procedure, shortened: (§2)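 Viability of medium-adapted leukemia cells was measured by CellTiter-Glo One luminescence after 48 h at 37°C with library compounds in DMSO. Doses were 11 threefold steps from 47 μM to 0.79 nM, in 1536-well plates at 500 or 1000 cells/well. Signals were normalised per plate to DMSO and cell-free wells and fitted with a four-parameter log-logistic model on log10 dose. Area under the curve was integrated by trapezoidal rule, with curves exceeding full viability scaled and failed quality-control curves removed.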

P12-Ichikawa [5] = test: as above
Procedure, shortened: as §2

SEM cells [6] = test: as above
Procedure, shortened: as §2

O=C1\C=C/C[C@@H]2[C@H]3CCCN4CCC[C@@H](CN12)[C@@H]34
cell viability [%]
Details	NOMO1 [1]	P12-Ichikawa [2]	SEM cells [3]
HPLM + 10% dialyzed FBS, 0.000781 µM	116	98.2	109
HPLM + 10% dialyzed FBS, 0.00234 µM	110	103	113
HPLM + 10% dialyzed FBS, 0.00702 µM	117	107	111
HPLM + 10% dialyzed FBS, 0.0211 µM	106	101	112
HPLM + 10% dialyzed FBS, 0.0632 µM	125	108	99.6
HPLM + 10% dialyzed FBS, 0.19 µM	107	99.2	105
HPLM + 10% dialyzed FBS, 0.569 µM	101	98.1	117
HPLM + 10% dialyzed FBS, 1.71 µM	107	104	112
HPLM + 10% dialyzed FBS, 5.12 µM	121	98.9	93.4
HPLM + 10% dialyzed FBS, 15.4 µM	89.2	99.1	102
HPLM + 10% dialyzed FBS, 46.1 µM	104	89.6	101
RPMI 5 mM glucose + 10% FBS, 0.000781 µM	90.2	103	90.8
RPMI 5 mM glucose + 10% FBS, 0.00234 µM	94.3	116	77.1
RPMI 5 mM glucose + 10% FBS, 0.00702 µM	97.1	109	103
RPMI 5 mM glucose + 10% FBS, 0.0211 µM	90.9	101	108
RPMI 5 mM glucose + 10% FBS, 0.0632 µM	95.4	98.5	101
RPMI 5 mM glucose + 10% FBS, 0.19 µM	93	94.8	59.3
RPMI 5 mM glucose + 10% FBS, 0.569 µM	93.4	98.5	99.5
RPMI 5 mM glucose + 10% FBS, 1.71 µM	85.9	85.7	107
RPMI 5 mM glucose + 10% FBS, 5.12 µM	91.8	93.5	87.1
RPMI 5 mM glucose + 10% FBS, 15.4 µM	93	96.8	88.6
RPMI 5 mM glucose + 10% FBS, 46.1 µM	93.4	89.7	95.7
RPMI 5 mM glucose + 10% dialyzed FBS, 0.000781 µM	106	102	89.1
RPMI 5 mM glucose + 10% dialyzed FBS, 0.00234 µM	107	98.5	108
RPMI 5 mM glucose + 10% dialyzed FBS, 0.00702 µM	103	97.8	101
RPMI 5 mM glucose + 10% dialyzed FBS, 0.0211 µM	116	105	115
RPMI 5 mM glucose + 10% dialyzed FBS, 0.0632 µM	94.1	98.4	108
RPMI 5 mM glucose + 10% dialyzed FBS, 0.19 µM	104	94	81.8
RPMI 5 mM glucose + 10% dialyzed FBS, 0.569 µM	90.3	105	106
RPMI 5 mM glucose + 10% dialyzed FBS, 1.71 µM	106	95.7	118
RPMI 5 mM glucose + 10% dialyzed FBS, 5.12 µM	105	100	105
RPMI 5 mM glucose + 10% dialyzed FBS, 15.4 µM	98.9	94.3	98.9
RPMI 5 mM glucose + 10% dialyzed FBS, 46.1 µM	86.6	86.8	92.2

AUC of viability dose-response curve
Details	NOMO1 [4]	P12-Ichikawa [5]	SEM cells [6]
HPLM + 10% dialyzed FBS	456	473	465
RPMI 5 mM glucose + 10% FBS	442	429	441
RPMI 5 mM glucose + 10% dialyzed FBS	448	469	476

N[S+](=O)([O-])c1cc(Cl)c(Cl)c([S+](N)(=O)[O-])c1
cell viability [%]
Details	NOMO1 [1]	P12-Ichikawa [2]	SEM cells [3]
HPLM + 10% dialyzed FBS, 0.000781 µM	112	116	108
HPLM + 10% dialyzed FBS, 0.00234 µM	92.2	108	95.8
HPLM + 10% dialyzed FBS, 0.00702 µM	107	112	108
HPLM + 10% dialyzed FBS, 0.0211 µM	105	112	109
HPLM + 10% dialyzed FBS, 0.0632 µM	106	107	101
HPLM + 10% dialyzed FBS, 0.19 µM	104	105	90.5
HPLM + 10% dialyzed FBS, 0.569 µM	116	92.3	106
HPLM + 10% dialyzed FBS, 1.71 µM	98.3	102	104
HPLM + 10% dialyzed FBS, 5.12 µM	86.5	108	111
HPLM + 10% dialyzed FBS, 15.4 µM	82.6	101	39.1
HPLM + 10% dialyzed FBS, 46.1 µM	94.3	97.9	88.9
RPMI 5 mM glucose + 10% FBS, 0.000781 µM	112	100	85.2
RPMI 5 mM glucose + 10% FBS, 0.00234 µM	95.7	109	97
RPMI 5 mM glucose + 10% FBS, 0.00702 µM	96	109	111
RPMI 5 mM glucose + 10% FBS, 0.0211 µM	101	113	97.7
RPMI 5 mM glucose + 10% FBS, 0.0632 µM	104	100	119
RPMI 5 mM glucose + 10% FBS, 0.19 µM	93.7	103	112
RPMI 5 mM glucose + 10% FBS, 0.569 µM	99.3	106	116
RPMI 5 mM glucose + 10% FBS, 1.71 µM	95.3	97.3	98.2
RPMI 5 mM glucose + 10% FBS, 5.12 µM	100	106	116
RPMI 5 mM glucose + 10% FBS, 15.4 µM	89.3	99.8	35.5
RPMI 5 mM glucose + 10% FBS, 46.1 µM	87.5	100	84.6
RPMI 5 mM glucose + 10% dialyzed FBS, 0.000781 µM	97.9	97.5	102
RPMI 5 mM glucose + 10% dialyzed FBS, 0.00234 µM	99.1	105	86
RPMI 5 mM glucose + 10% dialyzed FBS, 0.00702 µM	110	97	98.8
RPMI 5 mM glucose + 10% dialyzed FBS, 0.0211 µM	97.5	101	101
RPMI 5 mM glucose + 10% dialyzed FBS, 0.0632 µM	108	104	106
RPMI 5 mM glucose + 10% dialyzed FBS, 0.19 µM	95.7	101	97.9
RPMI 5 mM glucose + 10% dialyzed FBS, 0.569 µM	98.5	105	99.5
RPMI 5 mM glucose + 10% dialyzed FBS, 1.71 µM	92.6	97.2	105
RPMI 5 mM glucose + 10% dialyzed FBS, 5.12 µM	91.7	101	107
RPMI 5 mM glucose + 10% dialyzed FBS, 15.4 µM	100	98	35.6
RPMI 5 mM glucose + 10% dialyzed FBS, 46.1 µM	85.8	89.8	87.1

AUC of viability dose-response curve
Details	NOMO1 [4]	P12-Ichikawa [5]	SEM cells [6]
HPLM + 10% dialyzed FBS	453	448	450
RPMI 5 mM glucose + 10% FBS	445	460	446
RPMI 5 mM glucose + 10% dialyzed FBS	458	473	449
